Experimental data from patent US20200030355A1, “COMBINATION THERAPY FOR TREATING CANCER” (Epizyme, Inc., priority 2014, published 2020).
Entries after “also recorded” stand apart in the source; their conditions may differ.

Legend:
Format in all cases: cell-based, human
MV4-11 (MLL-AF4) = experiment: Combination proliferation study with Compound A2 (ATP/CellTiter-Glo, Chou-Talalay combination index); settings: for Combination with Compound A2, MV4-11 (MLL-AF4): 7 Day Cotreatment Model, Table 4; for Combination of Compound A2 and anti-cancer agent, MV4-11: 7 Day Cotreatment; for Combination with Compound A2, MV4-111 MLL-AF4: Table 2, Example 3
Experimental: The acute myelogenous leukemia cell lines MV4-11 (MLL-AF4) and MOLM-13 (MLL-AF9) were obtained from American Type Culture Collection (ATCC; Rockville, Md.) and Deutsche Sammlung von Mikroorganismen and Zellkulturen (DSMZ; Braunschweig, Germany) respectively.
(§1) Studies were performed using MLL-rearranged cell lines in vitro to evaluate the anti-proliferative effect of a combination of two agents together on cell growth. Initial proliferation studies were performed to determine the IC50 of a given compound in each cell line. The cell counts were measured by ATP quantitation using the Promega Cell Titer Glo kit and luminescence values corresponded to the amount of ATP in a given well.
Compounds were evaluated for synergy in the co-treatment phase by testing the compounds in a concentration range which was bracketed around their IC50 values. The compounds were plated to a 96 well plate in a matrix format (FIG. 3) which includes increasing concentrations of each drug in the combination in a constant ratio, in addition to the effect of each compound alone in the study. Cells were seeded and grown in the log-linear phase for 3 or 7 days in the co-treatment phase. Minimum inhibition (DMSO alone) controls were used in each plate to calculate fraction affected (Fa) of a test well. DMSO concentration was kept at 0.1% v/v.
The drug combination analysis was performed utilizing the Chou-Talalay method Synergy was determined using the software package Calcusyn by Biosoft. The combination index (CI) is a quantitative term used to describe the level of synergy or antagonism in a given test system. A combination index less than one indicates synergy, and a CI greater than one indicates antagonism. Further, strong synergism is achieved when the CI value falls below 0.3.
(§2) Graphs representing values of combination index (CI) versus Fractional effect (Fa) known as Fa-CI plots were generated and synergy was evaluated. Drug synergy was statistically defined by CI values less than 1, antagonism by CI>1 and additive effect by CI equal to 1.
as §2
(§3) The HP-D300 digital dispenser (Tecan) was used to dispense compounds in a combinatorial matrix. […] Cell viability was measured via ATP content using CellTiter-Glo® (Promega).
(§4) Viability was determined using CellTiter-Glo® (Promega).
as §1, with “Proliferation studies” for “Studies”, “MOLM-13, MV4-11 and SKM-1” for “MLL-rearranged”, “cancer cell killing” for “anti-proliferative”, “IC50 values” for “IC50”, “correspond” for “corresponded”
These studies were performed to evaluate both the combinatorial effect of compounds on cell killing and the durability of the effect by washing out one of the agents.
Compounds evaluated for synergy in the co-treatment phase were tested in a range which was bracketed around the IC50's. The compounds were plated to a 96 well plate in a matrix format which includes increasing concentrations of each drug in the combination in a constant ratio, in addition to the effect of each compound alone in the study.

[1] = tested on: SKM-1 (non-MLL-rearranged AML); experiment: as above; settings: for Effect of Compound A2 on the antiproliferative activity of the second agent: SKM-1, non-MLL-rearranged, Example 5; for Combination with Compound A2, SKM-1 AML: Non-rearranged: Table 2, Example 3
Experimental: (§5) Graphs representing values of combination index (CI) versus Fractional effect (Fa) known as Fa-CI plots were generated and synergy was evaluated.
as §5, §3, §4
MV4-11 cells were maintained in IMDM supplemented with 10% fetal bovine serum. MOLM-13 and SKM-1 cells were maintained in Roswell Park Memorial Institute medium (RPMI) supplemented with 10% fetal bovine serum. They were cultured in flasks or plates in a humidified 5% CO2 atmosphere.
as §1, with “Proliferation studies” for “Studies”, “MOLM-13, MV4-11 and SKM-1” for “MLL-rearranged”, “cancer cell killing” for “anti-proliferative”, “IC50 values” for “IC50”, “correspond” for “corresponded”
Compounds evaluated for synergy in the co-treatment phase were tested in a range which was bracketed around the IC50's. The compounds were plated to a 96 well plate in a matrix format which includes increasing concentrations of each drug in the combination in a constant ratio, in addition to the effect of each compound alone in the study. Cells were seeded and grown in the log-linear phase for 3 or 7 days in the cotreatment phase. Maximum and minimum inhibition (DMSO alone) controls were used in each plate to calculate fraction affected (Fa) of a test well. DMSO concentration was kept at 0.1% v/v. The drug combination analysis was performed utilizing the Chou-Talalay method. Synergy was determined using the software package Calcusyn by Biosoft. The combination index (CI) is the term used to describe the level of synergy or antagonism in a given test system. A combination index less than one indicates synergy, and a CI greater than one indicates antagonism.
The drug combination analysis was performed using the Chou-Talalay method. Graphs representing values of combination index (CI) versus Fractional effect (Fa) known as Fa-CI plots were generated and synergy was evaluated.

MOLM-13 (MLL-AF9) = experiment: as above
Method in brief: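 Viability by CellTiter-Glo ATP luminescence; Fa relative to DMSO controls. Combination index by Chou-Talalay (CI<1 synergy, =1 additive, >1 antagonism).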

EOL-1 (MLL-PTD) = experiment: Combination proliferation study with Compound A2; settings: Table 3, Example 3
Experimental: as §3, §4

KOPM-88 (MLL-PTD) = experiment: Combination proliferation study with Compound A2; settings: Table 3, Example 3
Experimental: as §3, §4

MOLM-13 cells [2] = experiment: Cell cycle / sub-G1 flow cytometry; settings: 156 nM Compound A2 plus 63 nM Ara-C, 10 and 14 days
Experimental: (§6) A Guava EasyCyte HT™ flow cytometer was used to measure DNA content, Annexin V staining and cell surface expression of CD14 and CD11b markers on Days 10 and 14.
(§7) On Day 0 MOLM-13 cells are seeded at 3,000 cells/mL. On Day 7 and Day 10 MOLM-13 cells are counted and reseeded at 50,000 cells/mL. […] On Day 10 They were redosed again. On Day 14 the experiment was terminated. Cells were sampled for CD14 and CD11b analysis on Days 7, 10 and 14.
(§8) To evaluate the fraction of cells in each cell cycle, flow cytometric analysis was performed. FACS analysis for detection of cell death by apoptosis, and cell cycle was performed.
(§9) Cells were harvested on days 7, 10 and 14 and split to allow simultaneous analysis of cell cycle and Annexin V staining. Apoptosis was determined using the Guava Nexin Assay (Millipore 4500-0450) and cells were prepared according to the manufacturer's recommendations. Samples were analyzed using the Guava EasyCyte Plus System (Millipore). Cells for cell cycle analysis were pelleted by centrifugation at 200×g for 5 minutes at 4° C., washed twice with ice cold PBS then fixed with 70% ice cold ethanol. All samples were analyzed together at end of experiment. Following fixation cells were washed with PBS and stained with the Guava cell cycle reagent (Millipore 4500-0220) for 30 minutes. Samples were analyzed using the Guava EasyCyte Plus System (Millipore).

MOLM-13 cells [3] = experiment: Apoptosis by Annexin V flow cytometry (Guava Nexin)
Experimental: as §6, §7, §8, §9

[4] = 7 Day Cotreatment Model, Table 4

SMILES	Combination with Compound A2, MV4-11 (MLL-AF4) (MV4-11 (MLL-AF4))	Effect of Compound A2 on the antiproliferative activity of the second agent [1]	Combination with Compound A2, MOLM-13 (MLL-AF9) (MOLM-13 (MLL-AF9); [4])	Combination with Compound A2, EOL-1 (MLL-PTD) (EOL-1 (MLL-PTD))	Combination with Compound A2, KOPM-88 (MLL-PTD) (KOPM-88 (MLL-PTD))	Combination of Compound A2 and anti-cancer agent, MV4-11 (MV4-11 (MLL-AF4))	Combination with Compound A2, MV4-111 MLL-AF4 (MV4-11 (MLL-AF4))	Combination with Compound A2, MOLM-13 (MLL-AF9) (MOLM-13 (MLL-AF9); Table 2, Example 3)	other results
C[C@]12C=CC(=O)C=C1CC[C@@H]1[C@@H]2[C@@H](O)C[C@@]2(C)[C@H]1CC[C@]2(O)C(=O)CO [Prednisolone]	Antagonistic (antagonism by CI>1)	enhanced antiproliferative activity	Antagonistic (antagonism by CI>1)						Combination with Compound A2, MV4-11 (MLL-AF4) (MV4-11 (MLL-AF4); listed as prednisolone): antagonism; Combination with Compound A2, MOLM-13 (MLL-AF9) (MOLM-13 (MLL-AF9); 7 Day Cotreatment Model, Table 4, listed as prednisolone): antagonism
Nc1ncn([C@@H]2O[C@H](CO)[C@@H](O)[C@H]2O)c(=O)n1 [Azacitidine]	Synergy (Drug synergy was statistically defined by CI values less than 1)		Strong Synergy	Synergy (Drug synergy was statistically defined by CI values less than 1)	Synergy (Drug synergy was statistically defined by CI values less than 1)	Synergy (A combination index less than one indicates synergy)	Synergy (Drug synergy was statistically defined by CI values less than 1)	Synergy (Drug synergy was statistically defined by CI values less than 1)	Combination with Compound A2, MV4-11 (MLL-AF4) (MV4-11 (MLL-AF4); listed as azacytidine): synergistically induce an anti-proliferative effect; also recorded: synergistic anti-proliferative activity; Effect of Compound A2 on the antiproliferative activity of the second agent ([1]; listed as Azacytidine): not potentiated; Effect of Compound A2 on the antiproliferative activity of the second agent ([1]; listed as azacytidine): no impact; Combination with Compound A2, MOLM-13 (MLL-AF9) (MOLM-13 (MLL-AF9); 7 Day Cotreatment Model, Table 4, listed as azacytidine): synergistically induce an anti-proliferative effect; also recorded: synergistic anti-proliferative activity
COc1cc2c(cc1-c1c(C)noc1C)ncc1[nH]c(=O)n([C@H](C)c3ccccn3)c12 [IBET-151]			Synergy (Drug synergy was statistically defined by CI values less than 1)			Synergy (A combination index less than one indicates synergy)	Synergy (Drug synergy was statistically defined by CI values less than 1)	Synergy (Drug synergy was statistically defined by CI values less than 1)	Combination with Compound A2, SKM-1 AML: Non-rearranged [1]: IC50 not achieved
Nc1ccn([C@@H]2O[C@H](CO)[C@@H](O)[C@@H]2O)c(=O)n1 [Ara-C, cytarabine]		did not affect	Strong Synergy	Synergy (Drug synergy was statistically defined by CI values less than 1)	Synergy (Drug synergy was statistically defined by CI values less than 1)	Synergy (A combination index less than one indicates synergy)	Strong Synergy	Synergy (Drug synergy was statistically defined by CI values less than 1)	Combination with Compound A2 when Compound A2 is washed out prior to the addition of the second agent (MV4-11 (MLL-AF4); MV4-11, pre-treatment model with Compound A2 washout): synergistic anti-proliferative activity was maintained; Combination with Compound A2, MV4-111 MLL-AF4 (MV4-11 (MLL-AF4); listed as cytarabine): synergistically; sub-G1 cell population, combination with Compound A2 (MOLM-13 cells [2]): significant increase in the population of sub-G1 cells; Apoptosis, combination with Compound A2 (MOLM-13 cells [3]; 156 nM Compound A2 plus 63 nM Ara-C): enhance apoptosis; Induction of apoptosis, single agent (MOLM-13 cells [3]; 14 day treatment, 156 nM Compound A2 or 63 nM Ara-C): modest increase in apoptotic cell population; Combination with Compound A2, SKM-1 AML: Non-rearranged ([1]; listed as cytarabine): did not act synergistically; Combination of Compound A2 and anti-cancer agent, MOLM-13 (MOLM-13 (MLL-AF9); 4 + 3 Model: Compound A2 pretreatment 4 days, then co-treatment 3 days): Synergy (A combination index less than one indicates synergy); Combination of Compound A2 and anti-cancer agent, MOLM-13 (MOLM-13 (MLL-AF9); 7 Day Cotreatment): Synergy (A combination index less than one indicates synergy); Combination with Compound A2, reverse order of addition (MOLM-13 (MLL-AF9); MOLM-13, Ara-C 3 days, then cotreatment with Compound A2 7 days): Synergy; Combination with Compound A2, reverse order of addition with Ara-C washout (MOLM-13 (MLL-AF9); MOLM-13, Ara-C 3 days, washed out, then Compound A2 7 days): Combination benefit is maintained; Combination with Compound A2 when Compound A2 is washed out prior to the addition of the second agent (MOLM-13 (MLL-AF9); MOLM-13, pre-treatment model with Compound A2 washout): durable combination benefit; also recorded: synergistic anti-proliferative activity was maintained; Combination with Compound A2, MOLM-13 (MLL-AF9) (MOLM-13 (MLL-AF9); Table 2, Example 3, listed as cytarabine): synergistically
